Assay results published in ChEMBL document CHEMBL1134322, “A novel approach for the development of selective Cdk4 inhibitors: library design based on locations of Cdk4 specific amino acid residues” (J Med Chem, 2001).

Legend:
[1] = biological target: Cyclin-dependent kinase 2/cyclin A (Homo sapiens, UniProt P24941); experiment: Inhibition of human recombinant cyclin A-CDK2; format: protein-complex assay
[2] = biological target: Cyclin-dependent kinase 2 and 4 (CDK2 and CDK4) (Homo sapiens) (UniProt P11802+P24941); experiment: Selectivity for CDK4 over CDK2; format: protein assay
[3] = Inhibition of human recombinant cyclin D2-CDK4
[4] = biological target: Cyclin-dependent kinase 1/cyclin B (Homo sapiens, UniProt P06493); experiment: Inhibition of human recombinant cyclin B-CDK1; format: protein-complex assay
[5] = biological target: CDK6/cyclin D1 (Homo sapiens, UniProt Q00534); experiment: Inhibition of cyclin D1-CDK6 ser/thr kinase.; format: protein-complex assay
Sequence of CDK6/cyclin D1 (P24385 whole entry): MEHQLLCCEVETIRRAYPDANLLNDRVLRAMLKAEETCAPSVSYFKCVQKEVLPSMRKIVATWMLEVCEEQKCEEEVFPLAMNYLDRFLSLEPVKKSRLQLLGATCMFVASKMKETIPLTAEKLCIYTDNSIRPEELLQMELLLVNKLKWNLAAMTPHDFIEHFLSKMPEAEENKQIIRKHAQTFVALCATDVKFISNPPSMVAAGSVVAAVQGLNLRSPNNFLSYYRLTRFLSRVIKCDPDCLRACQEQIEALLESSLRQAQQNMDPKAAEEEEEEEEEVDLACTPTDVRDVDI
Sequence of CDK6/cyclin D1 (Q00534 whole entry): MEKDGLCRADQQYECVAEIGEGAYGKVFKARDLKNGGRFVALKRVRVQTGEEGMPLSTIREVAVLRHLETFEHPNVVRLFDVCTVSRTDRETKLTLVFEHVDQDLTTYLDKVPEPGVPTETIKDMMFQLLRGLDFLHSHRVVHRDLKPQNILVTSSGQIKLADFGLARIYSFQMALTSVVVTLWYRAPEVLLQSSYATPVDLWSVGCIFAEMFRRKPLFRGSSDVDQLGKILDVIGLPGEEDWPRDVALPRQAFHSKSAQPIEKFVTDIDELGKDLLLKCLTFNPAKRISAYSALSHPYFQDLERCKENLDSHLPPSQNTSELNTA

[6] = biological target: Mitogen-activated protein kinase 3 (Homo sapiens, UniProt P27361); experiment: Inhibition of ERK1 ser/thr kinase.
[7] = biological target: Dual specificity mitogen-activated protein kinase kinase 1 (Homo sapiens, UniProt Q02750); experiment: Inhibition of mitogen activated protein kinase kinase 1
[8] = biological target: Proto-oncogene tyrosine-protein kinase Src (Homo sapiens, UniProt P12931); experiment: Inhibition of Src tyrosine kinase.
Sequence of Proto-oncogene tyrosine-protein kinase Src (P12931 2-536 limits assumed): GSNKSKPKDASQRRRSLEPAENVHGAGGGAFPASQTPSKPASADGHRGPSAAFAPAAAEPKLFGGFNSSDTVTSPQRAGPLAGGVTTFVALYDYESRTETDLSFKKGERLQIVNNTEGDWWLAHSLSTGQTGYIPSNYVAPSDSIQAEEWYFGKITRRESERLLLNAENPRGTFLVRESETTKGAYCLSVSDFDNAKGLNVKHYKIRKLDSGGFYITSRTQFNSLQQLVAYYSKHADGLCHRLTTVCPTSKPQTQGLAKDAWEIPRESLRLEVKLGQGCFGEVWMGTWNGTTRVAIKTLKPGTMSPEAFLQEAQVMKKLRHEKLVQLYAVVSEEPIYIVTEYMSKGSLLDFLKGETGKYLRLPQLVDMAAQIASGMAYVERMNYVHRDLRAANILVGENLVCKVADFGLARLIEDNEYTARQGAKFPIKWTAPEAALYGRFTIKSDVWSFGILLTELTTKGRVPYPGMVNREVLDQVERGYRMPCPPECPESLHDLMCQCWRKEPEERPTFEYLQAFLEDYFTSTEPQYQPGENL

[9] = biological target: Protein kinase C (PKC); experiment: Inhibition of PKC ser/thr kinase.; format: protein assay, Homo sapiens
[10] = biological target: Fibroblast growth factor receptor 1 (Homo sapiens, UniProt P11362); experiment: Inhibition of fibroblast growth factor receptor 1
Sequence of Fibroblast growth factor receptor 1 (P11362 whole entry): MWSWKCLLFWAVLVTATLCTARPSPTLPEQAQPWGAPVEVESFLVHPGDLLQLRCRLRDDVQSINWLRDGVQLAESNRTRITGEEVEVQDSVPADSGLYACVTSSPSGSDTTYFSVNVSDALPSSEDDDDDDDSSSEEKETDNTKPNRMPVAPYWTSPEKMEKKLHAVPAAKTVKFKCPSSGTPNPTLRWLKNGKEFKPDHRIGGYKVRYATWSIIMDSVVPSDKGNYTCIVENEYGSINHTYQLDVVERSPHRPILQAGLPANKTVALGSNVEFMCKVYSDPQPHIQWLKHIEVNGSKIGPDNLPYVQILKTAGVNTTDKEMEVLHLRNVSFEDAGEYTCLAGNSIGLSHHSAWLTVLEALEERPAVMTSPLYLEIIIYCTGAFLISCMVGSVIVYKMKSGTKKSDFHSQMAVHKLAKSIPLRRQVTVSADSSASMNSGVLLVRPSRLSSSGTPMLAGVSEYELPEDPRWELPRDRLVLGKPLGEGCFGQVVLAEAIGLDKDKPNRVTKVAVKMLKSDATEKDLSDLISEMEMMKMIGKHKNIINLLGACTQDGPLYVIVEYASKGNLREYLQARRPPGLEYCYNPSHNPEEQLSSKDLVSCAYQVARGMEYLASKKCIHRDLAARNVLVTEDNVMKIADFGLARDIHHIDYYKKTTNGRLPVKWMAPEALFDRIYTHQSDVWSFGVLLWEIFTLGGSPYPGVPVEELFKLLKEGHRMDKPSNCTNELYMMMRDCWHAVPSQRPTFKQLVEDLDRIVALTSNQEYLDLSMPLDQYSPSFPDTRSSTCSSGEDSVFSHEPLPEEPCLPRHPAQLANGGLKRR

[11] = biological target: RAC-alpha serine/threonine-protein kinase (Homo sapiens, UniProt P31749); experiment: Inhibition of PKBalpha (Akt1) ser/thr kinase.
Sequence of RAC-alpha serine/threonine-protein kinase (P31749 whole entry): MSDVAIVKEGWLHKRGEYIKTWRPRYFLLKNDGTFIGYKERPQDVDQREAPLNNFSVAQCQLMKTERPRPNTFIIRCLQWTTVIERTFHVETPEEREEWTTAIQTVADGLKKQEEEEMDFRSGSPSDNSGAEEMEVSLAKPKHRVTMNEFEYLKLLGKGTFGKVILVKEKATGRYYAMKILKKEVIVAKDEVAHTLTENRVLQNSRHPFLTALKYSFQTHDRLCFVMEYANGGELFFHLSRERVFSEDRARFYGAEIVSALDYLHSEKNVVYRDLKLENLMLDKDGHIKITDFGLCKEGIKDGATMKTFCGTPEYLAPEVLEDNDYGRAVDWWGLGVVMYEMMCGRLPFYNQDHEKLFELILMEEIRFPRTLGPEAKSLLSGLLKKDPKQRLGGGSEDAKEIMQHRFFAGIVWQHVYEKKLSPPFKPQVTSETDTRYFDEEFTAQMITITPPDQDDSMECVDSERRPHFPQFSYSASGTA

[12] = biological target: Tyrosine-protein kinase Lck (Homo sapiens, UniProt P06239); experiment: Inhibition of Lck tyrosine kinase.
Sequence of Tyrosine-protein kinase Lck (P06239 whole entry): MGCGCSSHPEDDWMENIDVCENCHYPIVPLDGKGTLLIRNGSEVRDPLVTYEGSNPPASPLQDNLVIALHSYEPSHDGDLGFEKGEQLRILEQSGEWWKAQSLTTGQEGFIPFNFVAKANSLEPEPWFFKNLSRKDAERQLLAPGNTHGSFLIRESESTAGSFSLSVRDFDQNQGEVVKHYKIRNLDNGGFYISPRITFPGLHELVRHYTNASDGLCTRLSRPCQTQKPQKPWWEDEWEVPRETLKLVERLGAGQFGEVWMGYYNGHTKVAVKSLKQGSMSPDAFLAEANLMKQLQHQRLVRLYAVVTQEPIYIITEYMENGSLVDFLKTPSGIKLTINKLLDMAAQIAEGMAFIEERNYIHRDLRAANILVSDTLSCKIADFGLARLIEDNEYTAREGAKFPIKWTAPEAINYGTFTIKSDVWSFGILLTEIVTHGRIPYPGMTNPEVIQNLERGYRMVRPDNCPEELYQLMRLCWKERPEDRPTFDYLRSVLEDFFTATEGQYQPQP

[13] = biological target: CaM kinase II (Homo sapiens, UniProt Q13557+Q13555+Q13554+Q9UQM7); experiment: Inhibition of calcium/calmodulin-dependent protein kinase type II; format: protein assay
[14] = biological target: Platelet-derived growth factor receptor beta (Homo sapiens, UniProt P09619); experiment: Inhibition of PDGFRbeta tyrosine kinase.
[15] = Inhibition of cyclin D2-CDK4 ser/thr kinase.; design: species or system Homo sapiens
[16] = biological target: Mitogen-activated protein kinase 14 (Homo sapiens, UniProt Q16539); experiment: Inhibition of p38-alpha ser/thr kinase.
Sequence of Mitogen-activated protein kinase 14 (Q16539 whole entry): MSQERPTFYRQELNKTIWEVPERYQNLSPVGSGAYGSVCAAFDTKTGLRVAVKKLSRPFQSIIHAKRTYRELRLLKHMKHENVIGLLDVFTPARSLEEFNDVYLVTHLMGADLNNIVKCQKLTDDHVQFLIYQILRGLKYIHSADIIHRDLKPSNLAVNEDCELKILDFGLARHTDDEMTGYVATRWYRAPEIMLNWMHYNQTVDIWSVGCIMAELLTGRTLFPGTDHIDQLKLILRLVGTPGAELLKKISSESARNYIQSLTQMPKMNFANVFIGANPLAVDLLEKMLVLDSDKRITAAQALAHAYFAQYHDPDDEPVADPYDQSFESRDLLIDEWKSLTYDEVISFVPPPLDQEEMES

[17] = biological target: cAMP-dependent protein kinase (PKA) (Homo sapiens, UniProt P22694+P17612+P22612); experiment: Inhibition of PKA ser/thr kinase.; format: protein assay
[18] = biological target: T1, Tyrosine-protein kinase ZAP-70 (Homo sapiens, UniProt P43403); experiment: Inhibition of Zap70 tyrosine kinase.
T1 sequence (P43403 whole entry): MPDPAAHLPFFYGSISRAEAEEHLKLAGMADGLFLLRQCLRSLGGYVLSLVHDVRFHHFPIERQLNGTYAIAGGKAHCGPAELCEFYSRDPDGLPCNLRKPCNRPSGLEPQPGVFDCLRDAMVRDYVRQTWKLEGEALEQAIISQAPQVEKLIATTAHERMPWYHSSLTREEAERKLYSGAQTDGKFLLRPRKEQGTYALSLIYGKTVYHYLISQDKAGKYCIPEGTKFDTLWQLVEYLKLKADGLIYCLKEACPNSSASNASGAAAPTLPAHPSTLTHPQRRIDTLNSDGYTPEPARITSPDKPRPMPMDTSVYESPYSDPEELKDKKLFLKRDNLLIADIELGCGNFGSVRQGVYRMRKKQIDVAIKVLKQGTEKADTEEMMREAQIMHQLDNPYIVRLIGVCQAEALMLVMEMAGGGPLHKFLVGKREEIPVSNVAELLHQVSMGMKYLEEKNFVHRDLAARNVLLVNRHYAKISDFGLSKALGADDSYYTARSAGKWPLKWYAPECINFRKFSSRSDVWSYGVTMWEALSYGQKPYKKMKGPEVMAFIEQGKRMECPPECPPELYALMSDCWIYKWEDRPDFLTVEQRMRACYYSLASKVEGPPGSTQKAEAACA

[19] = biological target: Vascular endothelial growth factor receptor 1 (Homo sapiens, UniProt P17948); experiment: Inhibition of Flt-1 tyrosine kinase.
Sequence of Vascular endothelial growth factor receptor 1 (P17948 whole entry): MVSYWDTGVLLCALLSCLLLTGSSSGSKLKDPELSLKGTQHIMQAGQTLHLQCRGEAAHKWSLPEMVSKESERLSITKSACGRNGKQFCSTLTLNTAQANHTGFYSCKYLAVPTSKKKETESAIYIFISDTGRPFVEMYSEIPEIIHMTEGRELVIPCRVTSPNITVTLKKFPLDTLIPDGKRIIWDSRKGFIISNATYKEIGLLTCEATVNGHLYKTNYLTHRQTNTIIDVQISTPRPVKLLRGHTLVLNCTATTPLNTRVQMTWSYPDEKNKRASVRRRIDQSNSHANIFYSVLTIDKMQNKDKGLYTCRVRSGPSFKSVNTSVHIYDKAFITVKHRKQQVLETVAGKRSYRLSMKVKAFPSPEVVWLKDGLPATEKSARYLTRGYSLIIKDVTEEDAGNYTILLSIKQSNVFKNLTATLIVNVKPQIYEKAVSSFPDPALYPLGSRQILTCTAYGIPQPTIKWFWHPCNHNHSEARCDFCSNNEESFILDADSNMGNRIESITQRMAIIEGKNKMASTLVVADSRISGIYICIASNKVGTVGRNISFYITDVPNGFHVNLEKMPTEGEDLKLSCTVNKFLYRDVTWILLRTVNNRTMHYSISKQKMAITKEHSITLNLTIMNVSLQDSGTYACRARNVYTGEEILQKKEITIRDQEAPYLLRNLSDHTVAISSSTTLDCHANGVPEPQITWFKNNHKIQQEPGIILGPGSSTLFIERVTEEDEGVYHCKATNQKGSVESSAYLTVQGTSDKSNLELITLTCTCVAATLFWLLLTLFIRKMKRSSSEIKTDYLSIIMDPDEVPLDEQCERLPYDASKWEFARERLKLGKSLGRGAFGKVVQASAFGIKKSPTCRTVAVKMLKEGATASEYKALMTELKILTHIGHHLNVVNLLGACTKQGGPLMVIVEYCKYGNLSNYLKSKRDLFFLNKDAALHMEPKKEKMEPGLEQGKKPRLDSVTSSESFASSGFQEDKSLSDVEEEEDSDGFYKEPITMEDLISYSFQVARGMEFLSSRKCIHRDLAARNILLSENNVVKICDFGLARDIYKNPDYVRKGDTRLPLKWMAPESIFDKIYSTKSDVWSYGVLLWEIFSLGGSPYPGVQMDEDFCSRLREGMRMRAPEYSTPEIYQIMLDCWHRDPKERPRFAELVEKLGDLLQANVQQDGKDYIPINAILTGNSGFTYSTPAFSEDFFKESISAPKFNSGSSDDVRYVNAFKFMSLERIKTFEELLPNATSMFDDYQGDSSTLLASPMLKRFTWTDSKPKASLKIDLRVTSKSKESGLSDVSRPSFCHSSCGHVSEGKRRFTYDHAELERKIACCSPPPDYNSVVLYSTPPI

[20] = species: Homo sapiens; experiment: Selectivity for CDK4 over CDK1

IC50 [1] | Selectivity [2] | IC50 [3] | Compound | further results
20 µM | 27 | 0.72 µM | O=C(Nc1cc(CNC2CCCCC2)[nH]n1)Nc1cccc2c1C1CCCN1C2=O (stereo unspecified) | –
25 µM | – | – | O=C(Nc1cc([C@@H]2CCCN2)n[nH]1)Nc1cccc2c1[C@@H]1CCCN1C2=O | IC50 [4]: 28 µM
7.5 µM | 16 | 0.47 µM | O=C(Nc1cc(CN2CCCC2)[nH]n1)Nc1cccc2c1C1CCCN1C2=O (stereo unspecified) | –
– | – | – | O=C(Nc1ccccn1)Nc1cccc2c1[C@H]1CCCN1C2=O | IC50 [5]: 0.071 µM; IC50 [6]: > 10 µM; IC50 [7]: > 10 µM; IC50 [8]: > 5 µM; IC50 [9]: > 20 µM; IC50 [10]: 6.7 µM; IC50 [11]: > 10 µM; IC50 [12]: 2.3 µM; IC50 [13]: > 10 µM; IC50 [14]: 5 µM; IC50 [15]: 0.042 µM; IC50 [16]: > 10 µM; IC50 [17]: > 20 µM; IC50 [18]: > 10 µM; IC50 [19]: 2.8 µM
9.8 µM | 180 | 0.056 µM | CC(C)(C)NCc1cc(NC(=O)Nc2cccc3c2C2CCCN2C3=O)[nH]n1 (stereo unspecified) | –
17 µM | 130 | 0.13 µM | CC(C)NCc1cc(NC(=O)Nc2cccc3c2C2CCCN2C3=O)[nH]n1 (stereo unspecified) | –
– | – | 0.029 µM | O=C(Nc1cc[nH]n1)Nc1cccc2c1[C@@H]1CCCN1C2=O | –
– | 150 | 0.065 µM | O=C(Nc1cc(CNC2CCCC2)[nH]n1)Nc1cccc2c1C1CCCN1C2=O (stereo unspecified) | –
14 µM | 48 | 0.29 µM | CNCc1cc(NC(=O)Nc2cccc3c2C2CCCN2C3=O)[nH]n1 (stereo unspecified) | –
12 µM | 48 | 0.25 µM | O=C(Nc1cc(CN2CCCCC2)[nH]n1)Nc1cccc2c1C1CCCN1C2=O (stereo unspecified) | –
25 µM | 110 | 0.22 µM | O=C(Nc1cc([C@@H]2CCCN2)[nH]n1)Nc1cccc2c1[C@H]1CCCN1C2=O | IC50 [4]: 31 µM; Selectivity [20]: 140
– | – | 0.021 µM | O=C(Nc1cc[nH]n1)Nc1cccc2c1[C@H]1CCCN1C2=O | –
– | 120 | 0.21 µM | O=C(Nc1cc([C@@H]2CCCN2)[nH]n1)Nc1cccc2c1[C@@H]1CCCN1C2=O | Selectivity [20]: 130
9.7 µM | – | – | O=C(Nc1cc(CNC2CCCC2)n[nH]1)Nc1cccc2c1C1CCCN1C2=O (stereo unspecified) | –
12 µM | 75 | 0.16 µM | CCCNCc1cc(NC(=O)Nc2cccc3c2C2CCCN2C3=O)[nH]n1 (stereo unspecified) | –
